Reference: patent publication US20260109712A1, “RIFAMYCINS FOR NONTUBERCULOUS MYCOBACTERIA” (priority 2022, published 2026)

Columns and labels:
Conditions in all cases: Table 10
[1] = Plasma protein binding assay (rapid equilibrium dialysis); assay type: in vitro ADME
Method: DMSO stocks were spiked into plasma to a concentration of 10,000 ng/mL. 200 μL of spiked plasma was pipetted into the sample chamber of the rapid equilibrium dialysis (RED) cartridge. 350 μL of PBS was added to the adjacent cartridge. The plate containing the RED was sealed and incubated at 37° C. on the thermomixer at 300 RPM for 4 h. After incubation, 50 μL aliquots of plasma were removed and added to 50 μL of blank plasma in a deep well plate (1:1). Similarly, 50 μL aliquots of PBS were removed and added to 50 μL of blank plasma. This created an identical matrix between buffer and non-buffer samples. Samples were processed and quantified as specified in the LC-MS/MS analytical method.

[2] = system: Δarr M. abscessus; experiment: MIC assay, isogenic arr-deleted strain; assay type: cell-based, Mycobacterium abscessus
Method in brief: (§1)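 Two-fold, ten-point dilutions in 7H9 with 2% DMSO; mid-log culture diluted to OD600=0.1 (1×10^7 CFU/mL). Incubated 3 days at 37 °C, shaking 110 RPM; growth = Day 3 minus Day 0 OD600, expressed as percentage of drug-free growth and plotted against concentration. Two biological replicates.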

[3] = system: M. abscessus ATCC 19977; experiment: MIC assay in 96-well plate format, wild-type strain; assay type: cell-based, Mycobacterium abscessus
Method in brief: as §1

`CO[C@H]1/C=C/O[C@@]2(C)Oc3c(C)c(O)c4c(c3C2=O)C2=NC3(CCN(CC(C)C)CC3)NC2=C(NC(=O)/C(C)=C/C=C/[C@H](C)[C@H](O)[C@@H](C)[C@@H](O)[C@@H](C)[C@H](OC(=O)NCc2cc(-c3ccccc3)no2)[C@@H]1C)C4=O` [UMN40] gave a plasma unbound fraction [1] of 0.12%, an MICΔorr [2] of 0.03 µM and an MICWT [3] of 0.035 µM.
Compound `COc1cccc(NC(=O)O[C@H]2[C@H](C)[C@H](O)[C@H](C)[C@@H](O)[C@@H](C)/C=C/C=C(\C)C(=O)NC3=C4NC5(CCN(CC(C)C)CC5)N=C4c4c(c(O)c(C)c5c4C(=O)[C@@](C)(O/C=C/[C@H](OC)[C@H]2C)O5)C3=O)c1` [UMN42] has a plasma unbound fraction [1] of 0.09%, an MICΔorr [2] of 0.03 µM and an MICWT [3] of 0.025 µM.
With `CO[C@H]1/C=C/O[C@@]2(C)Oc3c(C)c(O)c4c(c3C2=O)C2=NC3(CCN(CC(C)C)CC3)NC2=C(NC(=O)/C(C)=C/C=C/[C@H](C)[C@H](O)[C@@H](C)[C@@H](O)[C@@H](C)[C@H](OC(=O)Nc2ccc(C)cc2)[C@@H]1C)C4=O` [UMN43] the plasma unbound fraction [1] was 0.05%, the MICΔorr [2] was 0.03 µM and the MICWT [3] was 0.05 µM.
Compound `CO[C@H]1/C=C/O[C@@]2(C)Oc3c(C)c(O)c4c(c3C2=O)C2=NC3(CCN(CC(C)C)CC3)NC2=C(NC(=O)/C(C)=C/C=C/[C@H](C)[C@H](O)[C@@H](C)[C@@H](O)[C@@H](C)[C@H](OC(=O)c2nccs2)[C@@H]1C)C4=O` [UMN45] has a plasma unbound fraction [1] of 1.89%, an MICΔorr [2] of 0.017 µM and an MICWT [3] of 0.017 µM.
For `CO[C@H]1/C=C/O[C@@]2(C)Oc3c(C)c(O)c4c(c3C2=O)C2=NC3(CCN(CC(C)C)CC3)NC2=C(NC(=O)/C(C)=C/C=C/[C@H](C)[C@H](O)[C@@H](C)[C@@H](O)[C@@H](C)[C@H](OC(=O)N2CCN(CC(C)C)CC2)[C@@H]1C)C4=O` [UMN53], the plasma unbound fraction [1] was 0.20%, the MICΔorr [2] was 0.02 µM and the MICWT [3] was 0.027 µM.
`CO[C@H]1/C=C/O[C@@]2(C)Oc3c(C)c(O)c4c(c3C2=O)C2=NC3(CCN(CC(C)C)CC3)NC2=C(NC(=O)/C(C)=C/C=C/[C@H](C)[C@H](O)[C@@H](C)[C@@H](O)[C@@H](C)[C@H](OC(=O)Nc2ccncn2)[C@@H]1C)C4=O` [UMN56] gave a plasma unbound fraction [1] of 5.50%, an MICΔorr [2] of 0.05 µM and an MICWT [3] of 0.048 µM.
Work on `CO[C@H]1/C=C/O[C@@]2(C)Oc3c(C)c(O)c4c(c3C2=O)C2=NC3(CCN(CC(C)C)CC3)NC2=C(NC(=O)/C(C)=C/C=C/[C@H](C)[C@H](O)[C@@H](C)[C@@H](O)[C@@H](C)[C@H](OC(=O)N2CCN(c3ccccc3)CC2)[C@@H]1C)C4=O` [UMN58] yielded a plasma unbound fraction [1] of 0.13%, an MICΔorr [2] of 0.049 µM and an MICWT [3] of 0.09 µM.
With `CO[C@H]1/C=C/O[C@@]2(C)Oc3c(C)c(O)c4c(c3C2=O)C2=NC3(CCN(CC(C)C)CC3)NC2=C(NC(=O)/C(C)=C/C=C/[C@H](C)[C@H](O)[C@@H](C)[C@@H](O)[C@@H](C)[C@H](OC(=O)N2CCCC2(C)C)[C@@H]1C)C4=O` [UMN61] the plasma unbound fraction [1] was 0.17%, the MICΔorr [2] was 0.052 µM and the MICWT [3] was 0.08 µM.
For `CO[C@H]1/C=C/O[C@@]2(C)Oc3c(C)c(O)c4c(c3C2=O)C2=NC3(CCN(CC(C)C)CC3)NC2=C(NC(=O)/C(C)=C/C=C/[C@H](C)[C@H](O)[C@@H](C)[C@@H](O)[C@@H](C)[C@H](OC(=O)N2CCN(C(C)(C)C)CC2)[C@@H]1C)C4=O` [UMN63], the plasma unbound fraction [1] was 3.60%, the MICΔorr [2] was 0.043 µM and the MICWT [3] was 0.077 µM.
`CO[C@H]1/C=C/O[C@@]2(C)Oc3c(C)c(O)c4c(c3C2=O)C2=NC3(CCN(CC(C)C)CC3)NC2=C(NC(=O)/C(C)=C/C=C/[C@H](C)[C@H](O)[C@@H](C)[C@@H](O)[C@@H](C)[C@H](OC(=O)Nc2cccnn2)[C@@H]1C)C4=O` [UMN64] showed a plasma unbound fraction [1] of 4.15%, an MICΔorr [2] of 0.034 µM and an MICWT [3] of 0.032 µM.
Work on `CO[C@H]1/C=C/O[C@@]2(C)Oc3c(C)c(O)c4c(c3C2=O)C2=NC3(CCN(CC(C)C)CC3)NC2=C(NC(=O)/C(C)=C/C=C/[C@H](C)[C@H](O)[C@@H](C)[C@@H](O)[C@@H](C)[C@H](OC(=O)Nc2cccnc2)[C@@H]1C)C4=O` [UMN67] yielded a plasma unbound fraction [1] of 1.75%, an MICΔorr [2] of 0.025 µM and an MICWT [3] of 0.025 µM.
